In PubChem BioAssay AID248 (DTP/NCI, 2004):
Values joined by “and” are separate entries in the source; they are usually repeats but may differ in a detail not shown here. Equal entries are not always repeated. Toxic doses and inconclusive results are not listed. Cut-off read from the data, not from the text of the source: active = T/C of 150% or more; inactive = T/C below 125%.

Test system: L1210 leukemia ip in BDF1 mice, survival T/C
Test: NCI In Vivo Anticancer Drug Screen. Data for tumor model L1210 Leukemia (intraperitoneal) in B6D2F1 (BDF1) mice
Details: endpoint: mean survival time, higher = longer survival
Procedure, shortened: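 Mice bearing the transplanted tumor received compound or vehicle. Survival of the treated group was divided by that of the vehicle-treated control group to give the ratio.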

[1] = dose: 100.0 mg/kg/injection, schedule: Q01DX009 (ip), vehicle: Klucel (hydroxypropylcellulose) (HPC)
[2] = dose: 200.0 mg/kg/injection, schedule: Q01DX009 (ip), vehicle: Klucel (hydroxypropylcellulose) (HPC)
[3] = dose: 400.0 mg/kg/injection, schedule: Q01DX009 (ip), vehicle: Klucel (hydroxypropylcellulose) (HPC)
[4] = dose: 25.0 mg/kg/injection, schedule: Q04DX002 (ip), vehicle: saline with Tween-80
[5] = dose: 50.0 mg/kg/injection, schedule: Q04DX002 (ip), vehicle: saline with Tween-80
[6] = dose: 200.0 mg/kg/injection, schedule: Q04DX002 (ip), vehicle: saline with Tween-80
[7] = dose: 100.0 mg/kg/injection, schedule: Q04DX002 (ip), vehicle: saline with Tween-80
[8] = dose: 400.0 mg/kg/injection, schedule: Q04DX002 (ip), vehicle: saline with Tween-80
[9] = dose: 50.0 mg/kg/injection, schedule: Q01DX009 (ip), vehicle: saline
[10] = dose: 25.0 mg/kg/injection, schedule: Q01DX009 (ip), vehicle: saline with Tween-80
[11] = dose: 50.0 mg/kg/injection, schedule: Q01DX009 (ip), vehicle: saline with Tween-80
[12] = dose: 100.0 mg/kg/injection, schedule: Q04DX003 (ip), vehicle: saline with Tween-80
[13] = dose: 200.0 mg/kg/injection, schedule: Q04DX003 (ip), vehicle: saline with Tween-80

Measured: T/C

CC(C)(C)C1(O)CCCCC1
inactive: [1] 99 % of control | dose: 100.0 mg/kg/injection, schedule: Q04DX003 (ip), vehicle: Klucel (hydroxypropylcellulose) (HPC) 98 % of control | [2] 92 % of control | dose: 200.0 mg/kg/injection, schedule: Q04DX003 (ip), vehicle: Klucel (hydroxypropylcellulose) (HPC) 100 % of control | [3] 92 % of control | dose: 400.0 mg/kg/injection, schedule: Q04DX003 (ip), vehicle: Klucel (hydroxypropylcellulose) (HPC) 98 % of control

CC(=O)c1cccc(OC(=O)Nc2ccc(Cl)cc2)c1
inactive: dose: 100.0 mg/kg/injection, schedule: Q01DX001 (ip), vehicle: carboxymethylcellulose (CMC) 89 % of control | dose: 100.0 mg/kg/injection, schedule: Q01DX009 (ip), vehicle: carboxymethylcellulose (CMC) 101 % of control and 102 % of control | dose: 100.0 mg/kg/injection, schedule: Q04DX003 (ip), vehicle: carboxymethylcellulose (CMC) 92 % of control and 90 % of control | dose: 200.0 mg/kg/injection, schedule: Q01DX001 (ip), vehicle: carboxymethylcellulose (CMC) 94 % of control | dose: 200.0 mg/kg/injection, schedule: Q01DX009 (ip), vehicle: carboxymethylcellulose (CMC) 98 % of control and 90 % of control | dose: 200.0 mg/kg/injection, schedule: Q04DX003 (ip), vehicle: carboxymethylcellulose (CMC) 95 % of control and 97 % of control | dose: 400.0 mg/kg/injection, schedule: Q01DX001 (ip), vehicle: carboxymethylcellulose (CMC) 89 % of control | dose: 400.0 mg/kg/injection, schedule: Q01DX009 (ip), vehicle: carboxymethylcellulose (CMC) 98 % of control and 88 % of control | dose: 400.0 mg/kg/injection, schedule: Q04DX003 (ip), vehicle: carboxymethylcellulose (CMC) 90 % of control

CN=Cc1ccccc1O.CN=Cc1ccccc1O.[Cu+2]
inactive: dose: 4.68 mg/kg/injection, schedule: Q01DX009 (ip), vehicle: acetone 94 % of control | dose: 9.37 mg/kg/injection, schedule: Q01DX009 (ip), vehicle: acetone 92 % of control | dose: 18.75 mg/kg/injection, schedule: Q01DX009 (ip), vehicle: acetone 90 % of control | dose: 18.75 mg/kg/injection, schedule: Q04DX003 (ip), vehicle: acetone 95 % of control | dose: 37.5 mg/kg/injection, schedule: Q04DX003 (ip), vehicle: acetone 92 % of control | dose: 75.0 mg/kg/injection, schedule: Q01DX001 (ip), vehicle: acetone 92 % of control

CCOC(=O)C1C(C#N)C2OC1C(Cl)C2Cl (stereo not given)
inactive: [1] 100 % of control | [2] 102 % of control | [3] 94 % of control

C[OH+]c1ccccc1C(=O)O.C[OH+]c1ccccc1C(=O)O.[Ni]
inactive: [4] 97 % of control and 103 % of control | [5] 100 % of control and 107 % of control | [6] 120 % of control and 90 % of control

O=C(N/N=C\c1ccc(N(CCCl)CCCl)cc1)c1cccnc1
inactive: dose: 12.5 mg/kg/injection, schedule: Q01DX Z (ip), vehicle: carboxymethylcellulose (CMC) 96 % of control | dose: 25.0 mg/kg/injection, schedule: Q01DX Z (ip), vehicle: carboxymethylcellulose (CMC) 93 % of control and 94 % of control | dose: 50.0 mg/kg/injection, schedule: Q01DX Z (ip), vehicle: carboxymethylcellulose (CMC) 94 % of control and 100 % of control | dose: 100.0 mg/kg/injection, schedule: Q01DX Z (ip), vehicle: carboxymethylcellulose (CMC) 97 % of control and 104 % of control | dose: 200.0 mg/kg/injection, schedule: Q01DX Z (ip), vehicle: carboxymethylcellulose (CMC) 107 % of control and 111 % of control

O=C(CC1NCCCC1O)Cn1cnc2cc3c(cc2c1=O)OCO3 (stereo not given)
inactive: dose: 5.0 mg/kg/injection, schedule: Q01DX009 (ip), vehicle: saline 117 % of control | dose: 5.0 mg/kg/injection, schedule: Q04DX003 (ip), vehicle: saline 105 % of control | dose: 10.0 mg/kg/injection, schedule: Q01DX009 (ip), vehicle: saline 122 % of control | dose: 10.0 mg/kg/injection, schedule: Q04DX003 (ip), vehicle: saline 105 % of control | dose: 20.0 mg/kg/injection, schedule: Q01DX009 (ip), vehicle: saline 95 % of control | dose: 20.0 mg/kg/injection, schedule: Q04DX003 (ip), vehicle: saline 117 % of control

c1ccc(C(Nc2ccccn2)(c2ccccc2)c2ccccc2)cc1
inactive: [7] 104 % of control | [6] 101 % of control | [8] 93 % of control

CC(CN1c2ccccc2Sc2cccnc21)N(C)C (stereo not given)
inactive: dose: 3.12 mg/kg/injection, schedule: Q01DX009 (ip), vehicle: saline 97 % of control | dose: 6.25 mg/kg/injection, schedule: Q01DX009 (ip), vehicle: saline 97 % of control | dose: 12.5 mg/kg/injection, schedule: Q01DX009 (ip), vehicle: saline 101 % of control | dose: 25.0 mg/kg/injection, schedule: Q01DX009 (ip), vehicle: saline 103 % of control | dose: 25.0 mg/kg/injection, schedule: Q04DX003 (ip), vehicle: saline 108 % of control | [9] 111 % of control | dose: 50.0 mg/kg/injection, schedule: Q04DX003 (ip), vehicle: saline 102 % of control

CC(=O)O/N=C(/CCC(=O)O)c1ccccc1
inactive: [5] 97 % of control | [7] 108 % of control | [6] 94 % of control

CC(=O)c1ccc(OC(=O)Nc2ccc(Cl)cc2)cc1
inactive: [10] 106 % of control and 108 % of control | [11] 106 % of control and 112 % of control | [7] 100 % of control and 103 % of control | [12] 103 % of control | [6] 95 % of control and 92 % of control | [13] 108 % of control | [8] 97 % of control and 100 % of control

CCC[CH2][Sn]([CH2]CCC)=[N]S(=O)(=O)c1ccc(Cl)c(C)c1
inactive: dose: 5.0 mg/kg/injection, schedule: Q01DX001 (ip), vehicle: saline 98 % of control | dose: 10.0 mg/kg/injection, schedule: Q01DX001 (ip), vehicle: saline 98 % of control | dose: 20.0 mg/kg/injection, schedule: Q01DX001 (ip), vehicle: saline 109 % of control

NC(=O)c1c(/N=C/c2ccccc2Cl)sc2c1CCCC2
inactive: [7] 91 % of control | [6] 87 % of control | [8] 91 % of control

O=C(O)CNC(=O)Nc1ccccc1
inactive: dose: 100.0 mg/kg/injection, schedule: Q01DX009 (ip), vehicle: saline with Tween-80 97 % of control | [12] 100 % of control | dose: 200.0 mg/kg/injection, schedule: Q01DX009 (ip), vehicle: saline with Tween-80 95 % of control | [13] 96 % of control | dose: 400.0 mg/kg/injection, schedule: Q01DX009 (ip), vehicle: saline with Tween-80 91 % of control | dose: 400.0 mg/kg/injection, schedule: Q04DX003 (ip), vehicle: saline with Tween-80 97 % of control

CCOC(=O)NN(C(=O)OCC)c1c(NNC(C)=O)nc(N)[nH]c1=O
inactive: dose: 100.0 mg/kg/injection, schedule: Q01DX001 (ip), vehicle: saline 99 % of control | dose: 200.0 mg/kg/injection, schedule: Q01DX001 (ip), vehicle: saline 92 % of control | dose: 400.0 mg/kg/injection, schedule: Q01DX001 (ip), vehicle: saline 99 % of control

C#CCN1CCC2=C(C1)c1c(O)cc(C(C)C(C)CCCCC)cc1OC2(C)C (stereo not given)
inactive: dose: 100.0 mg/kg/injection, schedule: Q01DX001 (ip), vehicle: Klucel (hydroxypropylcellulose) (HPC) 95 % of control | dose: 200.0 mg/kg/injection, schedule: Q01DX001 (ip), vehicle: Klucel (hydroxypropylcellulose) (HPC) 92 % of control | dose: 400.0 mg/kg/injection, schedule: Q01DX001 (ip), vehicle: Klucel (hydroxypropylcellulose) (HPC) 103 % of control

CCOc1ncnc2c1nnn2C1OC(CO)C(O)C1O (stereo not given)
inactive: dose: 12.5 mg/kg/injection, schedule: Q01DX001 (ip), vehicle: saline with Tween-80 105 % of control | dose: 25.0 mg/kg/injection, schedule: Q01DX001 (ip), vehicle: saline with Tween-80 107 % of control | dose: 50.0 mg/kg/injection, schedule: Q01DX001 (ip), vehicle: saline with Tween-80 105 % of control | dose: 100.0 mg/kg/injection, schedule: Q01DX001 (ip), vehicle: saline with Tween-80 104 % of control | dose: 200.0 mg/kg/injection, schedule: Q01DX001 (ip), vehicle: saline with Tween-80 105 % of control | dose: 400.0 mg/kg/injection, schedule: Q01DX001 (ip), vehicle: saline with Tween-80 108 % of control

CC(=O)C(CN(C)C)c1ccccc1 (stereo not given)
inactive: dose: 12.5 mg/kg/injection, schedule: Q01DX009 (ip), vehicle: saline with Tween-80 91 % of control | dose: 12.5 mg/kg/injection, schedule: Q04DX002 (ip), vehicle: saline with Tween-80 102 % of control | [10] 98 % of control | [4] 102 % of control | [11] 89 % of control | [9] 103 % of control | [5] 109 % of control | dose: 200.0 mg/kg/injection, schedule: Q01DX009 (ip), vehicle: saline 90 % of control
